Test results published in ChEMBL document CHEMBL3045068, “Effect of methomyl and oxamyl soil applications on early control of nematodes and insects” (Pest Manag Sci, 2011).
≈ marks a conversion by molar mass, not a printed value.

Assays:
Meloidogyne incognita [1] = assay: Nematicidal activity against second juvenile stage of Meloidogyne incognita (root-knot nematode) infected pea plant assessed as root dry weight at 1.12 kg ai/ha applied to soil measured up to 7 days post planting under green house conditions (reference value: 0.25 +/- 0.041 g); assay type: functional
Phaseolus lunatus [2] = assay: Phytotoxicity in Phaseolus lunatus (lima bean) root assessed as root dry weight at 2.24 kg ai/ha applied to soil measured up to 7 days under green house conditions (reference value: 0.36 +/- 0.071 g); assay type: organism-based; conditions: in vivo, other, 168 h
Meloidogyne incognita [3] = assay: Nematicidal activity against second juvenile stage of Meloidogyne incognita (root-knot nematode) infected pea plant assessed as plant fresh weight at 1.12 kg ai/ha applied to soil measured up to 7 days post planting under green house conditions (reference value: 4.3 +/- 0.56 g); assay type: functional
Meloidogyne incognita [4] = assay: Nematicidal activity against second juvenile stage of Meloidogyne incognita (root-knot nematode) infected pea plant assessed as emergence at 1.12 kg ai/ha applied to soil measured up to 7 days under green house conditions (reference value: 75 +/- 13%); assay type: functional
Meloidogyne incognita [5] = assay: Nematicidal activity against second juvenile stage of Meloidogyne incognita (root-knot nematode) infected pea plant assessed as root dry weight at 0.56 kg ai/ha applied to soil under green house conditions (reference value: 0.25 +/- 0.041 g); assay type: functional
Meloidogyne incognita [6] = assay: Nematicidal activity against second juvenile stage of Meloidogyne incognita (root-knot nematode) infected pea plant assessed as root fresh weight at 1.68 kg ai/ha applied to soil measured up to 14 days post planting under green house conditions (reference value: 1.83 +/- 0.3 g); assay type: functional
Meloidogyne incognita [7] = assay: Nematicidal activity against second juvenile stage of Meloidogyne incognita (root-knot nematode) assessed as mortality after 72 hr; assay type: functional
Meloidogyne incognita [8] = assay: Nematicidal activity against second juvenile stage of Meloidogyne incognita (root-knot nematode) infected lima bean plant assessed as root dry weight at 1.12 kg ai/ha applied to soil measured during planting under green house conditions (reference value: 0.5 +/- 0.052 g); assay type: functional
Meloidogyne incognita [9] = assay: Nematicidal activity against second juvenile stage of Meloidogyne incognita (root-knot nematode) infected pea plant assessed as reduction in root gall index at 1.12 kg ai/ha applied to soil measured up to 7 days post planting under green house conditions (reference value: 9.7 +/- 0.30%); assay type: functional
Meloidogyne incognita [10] = assay: Nematicidal activity against second juvenile stage of Meloidogyne incognita (root-knot nematode) infected pea plant assessed as reduction in root gall index at 0.56 kg ai/ha applied to soil under green house conditions (reference value: 9.7 +/- 0.30%); assay type: functional
Meloidogyne incognita [11] = assay: Nematicidal activity against second juvenile stage of Meloidogyne incognita (root-knot nematode) infected lima bean plant assessed as shoot dry weight at 1.12 kg ai/ha applied to soil measured during planting under green house conditions (reference value: 1.84 +/- 0.18 g); assay type: functional
Meloidogyne incognita [12] = assay: Nematicidal activity against second juvenile stage of Meloidogyne incognita (root-knot nematode) infected pea plant assessed as root fresh weight at 1.12 kg ai/ha applied to soil measured up to 7 days post planting under green house conditions (reference value: 1.83 +/- 0.3 g); assay type: functional
Phaseolus lunatus [13] = assay: Phytotoxicity in Phaseolus lunatus (lima bean) plant assessed as plant dry weight at 1.12 kg ai/ha applied to soil measured up to 7 days under green house conditions (reference value: 1.20 +/- 0.21 g); assay type: organism-based; conditions: in vivo, other, 168 h
Phaseolus lunatus [14] = assay: Phytotoxicity in Phaseolus lunatus (lima bean) root assessed as root dry weight at 1.12 kg ai/ha applied to soil measured up to 7 days under green house conditions (reference value: 0.36 +/- 0.071 g); assay type: organism-based; conditions: in vivo, other, 168 h
Phaseolus lunatus [15] = assay: Phytotoxicity in Phaseolus lunatus (lima bean) plant assessed as plant dry weight at 2.24 kg ai/ha applied to soil measured up to 7 days under green house conditions (reference value: 1.20 +/- 0.21 g); assay type: organism-based; conditions: in vivo, other, 168 h
Meloidogyne incognita [16] = assay: Nematicidal activity against second juvenile stage of Meloidogyne incognita (root-knot nematode) infected lima bean plant assessed as reduction in root gall index at 0.56 kg ai/ha applied to soil measured during planting under green house conditions (reference value: 7 +/- 0.27%); assay type: functional
Meloidogyne incognita [17] = assay: Nematicidal activity against second juvenile stage of Meloidogyne incognita (root-knot nematode) infected pea plant assessed as reduction in root gall index at 1.68 kg ai/ha applied to soil measured up to 14 days post planting under green house conditions (reference value: 9.7 +/- 0.30%); assay type: functional
Meloidogyne incognita [18] = assay: Nematicidal activity against second juvenile stage of Meloidogyne incognita (root-knot nematode) infected pea plant assessed as root fresh weight at 0.56 kg ai/ha applied to soil under green house conditions (reference value: 1.83 +/- 0.3 g); assay type: functional
Meloidogyne incognita [19] = assay: Nematicidal activity against second juvenile stage of Meloidogyne incognita (root-knot nematode) infected pea plant assessed as plant fresh weight at 1.68 kg ai/ha applied to soil measured up to 7 days post planting under green house conditions (reference value: 4.3 +/- 0.56 g); assay type: functional
Meloidogyne incognita [20] = assay: Nematicidal activity against second juvenile stage of Meloidogyne incognita (root-knot nematode) infected lima bean plant assessed as emergence at 0.56 kg ai/ha applied to soil measured during planting under green house conditions (reference value: 83 +/- 5%); assay type: functional
Meloidogyne incognita [21] = assay: Nematicidal activity against second juvenile stage of Meloidogyne incognita (root-knot nematode) assessed as mortality after 48 hr; assay type: functional
Meloidogyne incognita [22] = assay: Nematicidal activity against second juvenile stage of Meloidogyne incognita (root-knot nematode) infected pea plant assessed as emergence at 0.56 kg ai/ha applied to soil under green house conditions (reference value: 75 +/- 13%); assay type: functional
Meloidogyne incognita [23] = assay: Nematicidal activity against second juvenile stage of Meloidogyne incognita (root-knot nematode) infected pea plant assessed as root dry weight at 1.68 kg ai/ha applied to soil measured up to 14 days post planting under green house conditions (reference value: 0.25 +/- 0.041 g); assay type: functional
Meloidogyne incognita [24] = assay: Nematicidal activity against second juvenile stage of Meloidogyne incognita (root-knot nematode) infected lima bean plant assessed as shoot dry weight at 0.56 kg ai/ha applied to soil measured during planting under green house conditions (reference value: 1.84 +/- 0.18 g); assay type: functional
Meloidogyne incognita [25] = assay: Nematicidal activity against second juvenile stage of Meloidogyne incognita (root-knot nematode) infected pea plant assessed as emergence at 1.68 kg ai/ha applied to soil measured up to 14 days under green house conditions (reference value: 75 +/- 13%); assay type: functional
Meloidogyne incognita [26] = assay: Nematicidal activity against second juvenile stage of Meloidogyne incognita (root-knot nematode) infected lima bean plant assessed as emergence at 1.12 kg ai/ha applied to soil measured during planting under green house conditions (reference value: 83 +/- 5%); assay type: functional
Phaseolus lunatus [27] = assay: Phytotoxicity in Phaseolus lunatus (lima bean) plant assessed as emergence at 1.12 kg ai/ha applied to soil measured up to 7 days under green house conditions (reference value: 70 +/- 16%); assay type: organism-based; conditions: in vivo, other, 168 h
Meloidogyne incognita [28] = assay: Nematicidal activity against second juvenile stage of Meloidogyne incognita (root-knot nematode) infected lima bean plant assessed as root dry weight at 0.56 kg ai/ha applied to soil measured during planting under green house conditions (reference value: 0.5 +/- 0.052 g); assay type: functional
Meloidogyne incognita [29] = assay: Nematicidal activity against second juvenile stage of Meloidogyne incognita (root-knot nematode) infected lima bean plant assessed as reduction in root gall index at 1.12 kg ai/ha applied to soil measured during planting under green house conditions (reference value: 7 +/- 0.27%); assay type: functional
Meloidogyne incognita [30] = assay: Nematicidal activity against second juvenile stage of Meloidogyne incognita (root-knot nematode) infested soil containing cucumber seeds assessed as mortality applied post seed germination measured after 7 days under green house conditions; assay type: functional
Phaseolus lunatus [31] = assay: Phytotoxicity in Phaseolus lunatus (lima bean) plant assessed as emergence at 2.24 kg ai/ha applied to soil measured up to 7 days under green house conditions (reference value: 70 +/- 16%); assay type: organism-based; conditions: in vivo, other, 168 h
Meloidogyne incognita [32] = assay: Nematicidal activity against second juvenile stage of Meloidogyne incognita (root-knot nematode) infected pea plant assessed as plant fresh weight at 0.56 kg ai/ha applied to soil under green house conditions (reference value: 4.3 +/- 0.56 g); assay type: functional

Compound: CNC(=O)O/N=C(\SC)C(=O)N(C)C [OXAMYL]
- Activity (Meloidogyne incognita [1]): 0.31 g
- Activity (Phaseolus lunatus [2]): 0.6 g
- Activity (Meloidogyne incognita [3]): 6 g
- Activity (Meloidogyne incognita [4]): 63%
- Activity (Meloidogyne incognita [5]): 0.17 g
- Activity (Meloidogyne incognita [6]): 1.76 g
- LC90 (Meloidogyne incognita [7]): 2.5 µg/mL (≈ 11.4 µM)
- LC50 (Meloidogyne incognita [7]; Meloidogyne incognita, Juvenile stage, 72 h): 1.7 µg/mL (≈ 7.75 µM)
- Activity (Meloidogyne incognita [8]): 0.41 g
- Root_galling_index (Meloidogyne incognita [9]): 0%
- Root_galling_index (Meloidogyne incognita [10]): 0%
- Activity (Meloidogyne incognita [11]): 1.49 g
- Activity (Meloidogyne incognita [12]): 1.61 g
- Activity (Phaseolus lunatus [13]): 1.48 g
- Activity (Phaseolus lunatus [14]): 0.35 g
- Activity (Phaseolus lunatus [15]): 1.79 g
- Root_galling_index (Meloidogyne incognita [16]): 0%
- Root_galling_index (Meloidogyne incognita [17]): 0%
- Activity (Meloidogyne incognita [18]): 1.36 g
- Activity (Meloidogyne incognita [19]): 7.1 g
- Activity (Meloidogyne incognita [20]): 83%
- LC90 (Meloidogyne incognita [21]): 11.5 µg/mL (≈ 52.4 µM)
- LC50 (Meloidogyne incognita [21]; Meloidogyne incognita, Juvenile stage, 48 h): 4 µg/mL (≈ 18.2 µM)
- Activity (Meloidogyne incognita [22]): 63%
- Activity (Meloidogyne incognita [23]): 0.29 g
- Activity (Meloidogyne incognita [24]): 1.09 g
- Activity (Meloidogyne incognita [25]): 75%
- Activity (Meloidogyne incognita [26]): 100%
- Activity (Phaseolus lunatus [27]): 80%
- Activity (Meloidogyne incognita [28]): 0.31 g
- Root_galling_index (Meloidogyne incognita [29]): 0%
- LC90 (Meloidogyne incognita [30]): 12 µg/mL (≈ 54.7 µM)
- LC50 (Meloidogyne incognita [30]; Meloidogyne incognita, Juvenile stage, 168 h): 2.8 µg/mL (≈ 12.8 µM)
- Activity (Phaseolus lunatus [31]): 70%
- Activity (Meloidogyne incognita [32]): 4.4 g
